Experimental findings from paper PMC5618429, “Kempopeptin C, a Novel Marine-Derived Serine Protease Inhibitor Targeting Invasive Breast Cancer” (Marine Drugs, 2017) are described below.

What all share (format): biochemical
Test [1] concerns the target T1, plasmin from human plasma (Homo sapiens, UniProt P00747).
T1 construct: purchased Sigma P1867; host or cells: human plasma
Briefly: Plasmin inhibition assay. The note with it: mean ± SD, n = 3; 30-min preincubation; read-out: IC50 against plasmin. On the procedure:
The plasmin inhibition assay was carried out by incubating 5 µL of […] plasmin from human plasma (P1867, Sigma, St. Louis, MO, USA) with 1 µL of different concentrations of inhibitors (2 and 3; half log dilutions prepared in DMSO) or the solvent control in the presence of 89 µL assay buffer (0.05 M Tris-HCl, pH 8.9). After a 30-min incubation time, 5 µL of 1.7 mM substrate solution (N-p-Tosyl-D-Gly-Pro-Lys-4-nitroanilide acetate salt; prepared in assay buffer) were added to each well. The reaction was monitored by measuring the absorbance at 405 nm every 30 s for 30 min using the SpectraMax M5 plate reader (Molecular Devices).

Test [2] concerns the target T2, recombinant human matriptase (Homo sapiens, UniProt Q9Y5Y6).
T2 construct: purchased R&D Systems 3946-SE-010
T2 sequence (Q9Y5Y6 615-855 limits assumed): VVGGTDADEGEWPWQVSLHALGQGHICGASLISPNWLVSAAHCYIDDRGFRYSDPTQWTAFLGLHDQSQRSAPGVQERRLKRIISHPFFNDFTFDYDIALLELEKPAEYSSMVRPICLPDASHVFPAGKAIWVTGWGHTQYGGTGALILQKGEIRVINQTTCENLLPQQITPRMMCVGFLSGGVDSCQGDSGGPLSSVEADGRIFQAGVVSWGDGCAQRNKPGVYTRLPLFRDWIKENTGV
In words: In vitro cleavage of desmoglein-2 by matriptase (SDS-PAGE, silver stain, densitometry). The note with it: 3 h; for Inhibition of in vitro cleavage of Dsg-2 by matriptase: enzyme to substrate ratio 1:5, pH 9.0, 37 °C, 10‒0.01 µM inhibitor, qualitative. Here is the method:
Figure 4 The effect of kempopeptin C (3) on the in vitro cleavage of CDCP1 and desmoglein-2 (Dsg-2) by matriptase. (A,B) Incubation of recombinant human CDCP1 with recombinant human matriptase (enzyme to substrate ratio 1:5) in 50 mM Tris, 50 mM NaCl, 0.01% Tween 20 (pH 9.0) at 37 °C for 30 min and 2 h in the presence and absence of different concentrations (10‒0.01 µM) of kempopeptin C (3). (C) Incubation of recombinant human Dsg-2 with recombinant human matriptase (enzyme to substrate ratio 1:5) in 50 mM Tris, 50 mM NaCl, 0.01% tween 20 (pH 9.0) at 37 °C for 3 h in the presence and absence of different concentrations (10‒0.01 µM) of kempopeptin C (3). Fragments were separated on SDS-PAGE under reducing conditions and silver stained. (D) Densitometric analysis of Dsg-2 bands in the SDS-PAGE in […].
Among the earliest events in cancer metastasis is the loss of intracellular adhesion. Desmosomes are adhesive molecules localized at the cell membrane acting as an anchor for intermediate filaments in addition to being adhesive intracellular junctions. Desmogleins (Dsg 1‒4) and desmocollins (Dsc 1‒3), comprising the core of the desmosomal adhesive complex, are glycoproteins and members of the cadherin superfamily of proteins. Desmogleins have been reported to be aberrantly expressed in several cancers and substrates of several proteases. Dsg-2 is known to be a substrate of kallikrein 7 (KLK7) and harbors a cleavage site for matriptase. We therefore investigated the cleavage of Dsg-2 by matriptase in vitro and the ability of kempopeptin C (3) to inhibit or reduce this cleavage. Matriptase and Dsg-2 were incubated for 3 h at 37 °C in assay buffer (final molar ratio 1:5) in the presence of different concentrations of kempopeptin C (3) or solvent control (Figure 4C). The resulting protein fragments were separated by SDS-PAGE and subjected to silver staining. […] The incomplete cleavage of Dsg-2 by matriptase might be due to the relative affinity of kempopeptin C (3) to matriptase, such that it can block the cleavage of some low affinity bands, but have no effects on others. […]

Test [3] has as its target T2, recombinant human matriptase. In words: Matriptase inhibition assay. Conditions: mean ± SD, n = 3; 15-min preincubation; read-out: IC50 against matriptase. Here is the method: In matriptase inhibition assay, 50 µL of recombinant human matriptase (R&D Systems, Minneapolis, MN, USA; 3946-SE-010) ([…] prepared in assay buffer: 50 mM Tris, 50 mM NaCl, 0.01% Tween 20; pH 9.0) and 1 µL of different concentrations of inhibitors (2 and 3; half log dilutions prepared in DMSO) or the solvent control were pre-incubated at room temperature for 15 min. Following the incubation period, 50 µL of the 50 µM substrate solution (Boc-Gln-Ala-Arg-AMC) (R&D Systems, Minneapolis, MN, USA; ES014) were added to each well, and the enzyme activity was monitored by measuring the increase in fluorescence signal from the fluorescently-labeled substrate every 30 s for 30 min (Ex 380 nm, Em 460 nm) using the SpectraMax M5 plate reader (Molecular Devices).

T1 sequence (P00747 581-810 limits assumed): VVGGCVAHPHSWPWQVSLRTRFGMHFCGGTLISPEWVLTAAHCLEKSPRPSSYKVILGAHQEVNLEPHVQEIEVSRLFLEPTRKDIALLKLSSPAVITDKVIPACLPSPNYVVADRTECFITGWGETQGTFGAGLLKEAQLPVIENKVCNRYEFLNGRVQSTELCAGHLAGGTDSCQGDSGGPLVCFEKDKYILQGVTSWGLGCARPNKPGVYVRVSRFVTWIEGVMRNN
T1 sequence (P00747 98-580 partner limits assumed): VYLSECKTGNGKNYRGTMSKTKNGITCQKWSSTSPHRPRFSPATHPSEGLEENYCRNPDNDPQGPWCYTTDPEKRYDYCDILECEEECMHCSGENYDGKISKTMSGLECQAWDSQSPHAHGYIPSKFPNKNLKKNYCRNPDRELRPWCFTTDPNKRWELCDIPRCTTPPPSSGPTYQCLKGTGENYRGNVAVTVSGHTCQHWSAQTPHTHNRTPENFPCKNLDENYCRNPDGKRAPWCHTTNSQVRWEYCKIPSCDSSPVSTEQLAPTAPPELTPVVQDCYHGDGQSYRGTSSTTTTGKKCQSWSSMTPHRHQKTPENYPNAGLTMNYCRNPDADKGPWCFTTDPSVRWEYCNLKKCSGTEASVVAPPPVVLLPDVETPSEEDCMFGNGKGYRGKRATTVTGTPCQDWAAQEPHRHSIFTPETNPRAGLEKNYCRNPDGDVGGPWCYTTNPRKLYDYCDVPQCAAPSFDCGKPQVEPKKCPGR

For the compound `CCCC(=O)NC(C(=O)NC1C(=O)NC(CCCCN)C(=O)NC2CCC(O)N(C2=O)C(C(C)CC)C(=O)N(C)C(Cc2ccc(OC)c(Cl)c2)C(=O)NC(C(C)C)C(=O)OC1C)C(C)C` (centres unmarked) [Kempopeptin C, kempopeptin C], the IC50 (as a rule, the concentration at which inhibition is half-maximal) in test [1] is 0.36 ± 0.09 µM; in test [3], 0.28 ± 0.03 µM. For the same compound, the “Densitometry of full-length Dsg-2 (Band 1)” value in test [2] (37 °C, compared to lower concentrations of the inhibitor) is “higher intensity of the full-length Dsg-2 (Band 1) in the presence of 10, 1 and 0.1 µM”. In addition, the “Inhibition of in vitro cleavage of Dsg-2 by matriptase” value is “inhibit the cleavage” in test [2] and “slight dose-dependent reduction in the cleavage of Dsg-2” in test [2] (listed as Kempopeptin C (3)).
